Source: patent US20240199557A1, “METHODS OF MAKING 1-BENZYL-4-PHENYL-1H-1,2,3-TRIAZOLE (BPT) AND BPT COATED STRUCTURES” (BOARD OF REGENTS, THE UNIVERSITY OF TEXAS SYSTEM, priority 2022, published 2024)

Experiments:
[1] = Stability/solubility of BPT in SPS and co-dissolvers; assay type: physicochemical
Method: Initial tests were run to find the stability/solubility of BPT in SPS. […] Several co-dissolvers were tested (ethyl alcohol 95%, isopropyl alcohol, acetone, dimethylsulfoxide, dimethylformamide, ethylenglycol, diethylenglycol, and 1-Methyl-2-pyrrolidinone), to aid in the solubility of the BPT in SPS. From these co-dissolvers, the organic compound N-methyl-2-pyrrolidone (NMP) performed the best and was selected at a concentration of 2.35 mg of BPT/mL of NMP (BPT saturated NMP solution).

[2] = XRD quantitative phase analysis of carbon steel discs after immersion
Method: Four 3 mm height discs were cut from […] diameter steel rebar and one of their flat faces was polished using silicon carbide sandpaper with 250, 400 and, 600 grit. Subsequently each disc was immersed for 90 seconds in 10 mL of a freshly prepared Clarke solution [42], rinsed thoroughly with water, acetone and dried under a soft stream of dry N2. The crystalline structure of the samples was analyzed on their sheeny face employing X-Ray powder diffraction (XRD) using a Bruker D8 Advance Eco diffractometer applying Cu-Kα1,2 radiation. All samples were scanned at 40 kV and 25 mA in the […] of 31-66° and 2.0 s of step time per 2θ=0.019°. The crystalline planes used to perform the quantitative phase analysis (QPA) are for iron at 2θ=44.6°; [2,0,0] for lepidocrocite at 2θ=47.4° and, [2,2,0] for goethite at 2θ=33.6°.
Subsequently, each one of the discs was immersed in a solution with the composition as described on Table 5 and their surfaces were analyzed using XRD four weeks later. The diffraction patterns are shown in FIG. 9 and the quantitative phase analysis (QPA) data is given on Table 6.

[3] = Anodic cyclic polarization (CYP): pitting potential
Excerpt: (§1) The steel cylinder working electrode (WE) were cross-sectioned and encased in epoxy. The surface was polished using 120 grit to 600 grit SiC paper, resulting in an exposed area of 0.499±0.01 cm^2. A Pt mesh was used as the counter electrode (CE). In terms of the reference electrodes (RE), a Saturated Calomel Electrode (SCE) was used for solutions with chloride and a Mercury Mercurous Sulfate Electrode (MSE) for solutions without chloride, satisfying the electrochemical cell requirements of ASTM standard G5 [38]. Though the experiments without chlorides were measured with MSE, the results were converted to SCE.
(§2) The WE, RE, and CE were placed in a test cell containing a synthetic pore solution (SPS). This SPS mimics the concrete pore environment and followed a formula consisting of 8.33 g/L NaOH+23.3 g/L KOH+2.0 g/L Ca(OH)2 (pH:13.6). These solutions were prepared using deionized water from a Milli-Q Water Purification System (resistivity: 18.2-18.7 MΩ·cm) and analytically pure grade reagents.
The testing procedure involved an initial pH measurement of the solution followed by purging the cell with CO2-free air (300 cc/min or more) for 5 minutes, prior to introducing the WE and throughout the experiment to reduce the effects of carbonation. More details can be found elsewhere. 2 M NaCl was chosen for the experiments since previously tested concentrations were not able to break the passive film generated in this highly alkaline environment. After chloride addition, the electrolyte was stirred for 4 h, while continuing to purge with CO2-free air. Then stirring stopped and purging was continued for 20 h to allow for passivation of the substrate. […] This procedure is similar to ASTM G180 [41]. The difference is related to the use of SPS instead of a cement slurry. Using a Gamry Reference 600+Potentiostat, different electrochemical tests were performed including open circuit potential (OCP), linear polarization resistance (LPR) and Anodic Cyclic Polarization (CYP).
LPR tests were performed from −0.030 V to +0.030 V from OCP, with a scan rate of 0.167 mV/s, in accordance with ASTM G59. CYP ran at a scan rate of 0.167 mV/s, beginning at 0.030 V more negative than the OCP with a maximum i of 1 mA/cm^2. Tests were performed to verify that pitting was occurring and not crevice corrosion occurred during CYP. After each experiment, the specimen was rinsed with D.I. water, degreased with ethanol, and dried. Surface images were taken using BX53 Olympus microscope to evaluate the corrosion morphology. […]
It is observed that for all conditions evaluated the passive film on the steel was formed, but the pitting potential (Ep) changed, being higher with the increase in BPT concentration (Table 3).

[4] = Linear polarization resistance (LPR): corrosion rate and inhibitor efficiency of steel rebar in synthetic pore solution
Excerpt: as §1, §2
The testing procedure involved an initial pH measurement of the solution followed by purging the cell with CO2-free air (300 cc/min or more) for 5 minutes, prior to introducing the WE and throughout the experiment to reduce the effects of carbonation. More details can be found elsewhere. 2 M NaCl was chosen for the experiments since previously tested concentrations were not able to break the passive film generated in this highly alkaline environment. After chloride addition, the electrolyte was stirred for 4 h, while continuing to purge with CO2-free air. Then stirring stopped and purging was continued for 20 h to allow for passivation of the substrate. […]
The results of the LPR measurements for the different conditions tested are presented in FIG. 3 as CR, which was determined using an estimated Stem-Geary coefficient (B) of 26 mV (corroding bars) and Rp values calculated, all following ASTM G59 [72, 73]. […]
The efficiency (IE, %) of the BPT was calculated using the CR results when Cl^− was added to the control solution (CRSPS) and solutions containing BPT (CRBPT), using Equation (1). […]

[5] = A36 mild steel, 1M HCl, 298 K; 2.311 mm/year without inhibitor; cited from earlier work

- stability in SPS ([1]; alkaline solution (SPS, pH 13.6)): stable in the alkaline solution
- concentration of BPT saturated NMP solution ([1]; in N-methyl-2-pyrrolidone (NMP)): 2.35 mg of BPT/mL of NMP
- solubility in water ([1]; water): unable to dissolve in water
- Ep (pitting potential) ([3]; 1 mM BPT in SPS, 2M NaCl): 149.25 mV vs. SCE
- Ep (pitting potential) ([3]; 2 mM BPT in SPS, 2M NaCl): 404.04 mV vs. SCE
- Ep (pitting potential) ([3]; 3 mM BPT in SPS, 2M NaCl): 302.06 mV vs. SCE
- Ep (pitting potential) ([3]; Adj. 3 mM BPT+NMP (hydroxide concentration adjusted to SPS), 2 M NaCl): 429.53±1.29 mV vs. SCE
Compound: c1ccc(Cn2cc(-c3ccccc3)nn2)cc1 [BPT, 1-Benzyl-4-Phenyl-1H-1,2,3-triazole]
- AFe/AGoe ([2]; SPS with NaCl in presence of BPT): 0
- AFe/ALep ([2]; disc 4: SPS + 2M NaCl + NMP + 3 mM BPT, four-week immersion): 26,908
- efficiency (IE, %) ([4]; 3 mM BPT in SPS with 2 M NaCl, calculated from CR by Equation (1)): 85.2%
- concentrations at which BPT can inhibit the corrosion of carbon steel rebar ([4]; SPS with 2 M NaCl): higher than 2 mM
- optimal concentration of BPT to inhibit corrosion on carbon steel rebar ([4]; SPS with 2 M NaCl): 3 mM
- corrosion kinetics (corrosion rate) with BPT [5]: 0.429 mm/year
